US10201625B2, “Radiolabelled octreotate analogues as PET tracers” (IMPERIAL COLLEGE, priority 2011, dated 2019)
Where two headings read alike, the source gives them in different places. Each block holds one molecule with its values, some of them ahead of it.

Tests used:
[1] = target: T1, somatostatin receptor (Rattus norvegicus, UniProt P30680); experiment: Competitive binding assay displacing [111In]-DTPA-Octreotide (OctreoScan) on AR42J tumour cells
T1 construct: endogenous in cells; host or cells: AR42J pancreatic tumour cells (whole cells)
T1 sequence (P30680 whole entry): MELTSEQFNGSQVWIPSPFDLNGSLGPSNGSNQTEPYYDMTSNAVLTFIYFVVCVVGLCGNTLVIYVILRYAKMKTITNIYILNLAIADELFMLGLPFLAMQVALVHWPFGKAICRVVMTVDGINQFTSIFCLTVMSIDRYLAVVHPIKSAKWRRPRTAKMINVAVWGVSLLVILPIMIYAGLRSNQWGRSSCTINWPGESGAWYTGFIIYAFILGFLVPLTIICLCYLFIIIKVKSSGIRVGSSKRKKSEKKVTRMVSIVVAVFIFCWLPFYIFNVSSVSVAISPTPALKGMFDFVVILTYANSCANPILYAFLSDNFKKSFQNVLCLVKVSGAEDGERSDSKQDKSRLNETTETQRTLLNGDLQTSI

[2] = Dynamic PET imaging of AR42J tumor bearing mice; settings: female, BALB/c nu/nu athymic, mouse, in vivo, iv, total radioactivity; AR42J tumor, 60 min, i.v.; read-out: Tumor radiotracer uptake at 60 min by imaging
Source text: (§1) Briefly, tail veins were cannulated under general anesthesia (isofluorane).

[3] = Direct counting of tissue radioactivity (γ-counter), AR42J tumor; parameters: species or system mice; settings: female, BALB/c nu/nu athymic, mouse, in vivo, iv, total radioactivity; AR42J tumor, after 60 min PET scan; read-out: Tumor radiotracer uptake after 60 min by γ-counting
[4] = test system: AR42J tumor; settings: same tumor model; cited from earlier work
[5] = Protocol: The octanol/PBS partition coefficients were determined using the shake flask method. Both solvents were presaturated with each other by shaking together for 5 min. To a solution of 500 μL of both octanol and PBS was added 20 μL of radiolabelled ligand in EtOH (n=3). The solutions mixtures were shaken in a rotamixer for 5 minutes. After equilibration the mixtures were centrifuged (10 min at 13,000 rpm) to achieve good separation. Samples from each layer (25 μL) were taken and measured in a γ counter and Log D was calculated according to the formula: log D=log(cpm in octanol layer/cpm in aqueous layer). Log D values were measured using the ^18F-labelled triazole. […] The receptor affinities for [^18F]1b-6b were determined using a competitive binding assay in AR42J tumours cells with [^111In]-OctreoScan as the labeled radiotracer.
[6] = test system: AR42J tumor xenografts; experiment: Dynamic PET imaging of AR42J tumor bearing mice; settings: mouse, in vivo; for Tumor radiotracer uptake at 60 min by imaging: iv
Source text: as §1

[7] = test system: AR42J tumor xenografts; experiment: Direct counting of tissue radioactivity (γ-counter), AR42J tumor; parameters: species or system mice; settings: mouse, in vivo
[8] = target: sstr-2 (Homo sapiens, UniProt P30874); experiment: Calcium flux FLIPR assay, agonist mode, sstr-2 expressing Chem-1 cells
Sequence of sstr-2 (P30874 whole entry): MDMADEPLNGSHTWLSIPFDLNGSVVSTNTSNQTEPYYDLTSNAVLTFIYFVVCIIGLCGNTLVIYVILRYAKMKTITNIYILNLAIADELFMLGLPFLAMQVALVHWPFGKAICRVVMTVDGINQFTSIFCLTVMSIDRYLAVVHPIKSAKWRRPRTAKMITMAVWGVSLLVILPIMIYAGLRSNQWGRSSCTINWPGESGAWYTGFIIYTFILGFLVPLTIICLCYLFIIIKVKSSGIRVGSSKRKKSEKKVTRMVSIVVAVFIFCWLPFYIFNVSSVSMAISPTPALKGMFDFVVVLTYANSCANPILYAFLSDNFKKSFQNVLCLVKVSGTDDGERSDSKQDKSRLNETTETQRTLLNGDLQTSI

[9] = cited from earlier work
[10] = read-out: Alkyne analogue (a) IC50
[11] = [19F]-triazole, read-out: Triazole analogue (b) IC50

IC50 [1, 10]: 5.1 ± 2.1 nM
Molecule: C#CCCC(=O)NCCOCCOCCOCCOCCOCCOCCC(=O)N[C@H](Cc1ccccc1)C(=O)N[C@H]1CSSC[C@@H](C(=O)N[C@H](C(=O)O)[C@@H](C)O)NC(=O)[C@H]([C@@H](C)O)NC(=O)[C@H](CCCCN)NC(=O)[C@@H](Cc2c[nH]c3ccccc23)NC(=O)[C@H](Cc2ccc(O)cc2)NC1=O [2a, E-PEG-TOCA]

IC50 [1, 10]: 1.4 ± 0.1 nM
Molecule: C#CC(=O)NCC(=O)N[C@H](Cc1ccccc1)C(=O)N[C@H]1CSSC[C@@H](C(=O)N[C@H](C(=O)O)[C@@H](C)O)NC(=O)[C@H]([C@@H](C)O)NC(=O)[C@H](CCCCN)NC(=O)[C@@H](Cc2c[nH]c3ccccc23)NC(=O)[C@H](Cc2ccc(O)cc2)NC1=O [3a, G-TOCA]

IC50 [1, 10]: 1.8 ± 0.8 nM
Molecule: C#CCCC(=O)N[C@H](Cc1ccccc1)C(=O)N[C@H]1CSSC[C@@H](C(=O)N[C@H](C(=O)O)[C@@H](C)O)NC(=O)[C@H]([C@@H](C)O)NC(=O)[C@H](CCCCN)NC(=O)[C@@H](Cc2c[nH]c3ccccc23)NC(=O)[C@H](Cc2ccc(O)cc2)NC1=O [4a, E-TOCA]

IC50 [1, 10]: 1 ± 0.3 nM
Molecule: C#CC(=O)NCCC(=O)NCC(=O)N[C@H](Cc1ccccc1)C(=O)N[C@H]1CSSC[C@@H](C(=O)N[C@H](C(=O)O)[C@@H](C)O)NC(=O)[C@H]([C@@H](C)O)NC(=O)[C@H](CCCCN)NC(=O)[C@@H](Cc2c[nH]c3ccccc23)NC(=O)[C@H](Cc2ccc(O)cc2)NC1=O [5a, propynoyl-β-Ala-Gly-[Tyr^3]-Octreotate]

Molecule: C[C@@H](O)[C@H](NC(=O)[C@@H]1CSSC[C@H](NC(=O)[C@@H](Cc2ccccc2)NC(=O)CN2CCN(CC(=O)O)CCN(CC(=O)O)CCN(CC(=O)O)CC2)C(=O)N[C@@H](Cc2ccc(O)cc2)C(=O)N[C@H](Cc2c[nH]c3ccccc23)C(=O)N[C@@H](CCCCN)C(=O)N[C@@H]([C@@H](C)O)C(=O)N1)C(=O)O [[^68Ga]DOTA-TATE, [^68Ga]-DOTATATE, metal not drawn, reference compound]
tissue uptake per volume at 1 h [2]: 2.75 ± 0.11 %ID/mL | tissue uptake at 1 h [3]: 3.78 ± 0.32 %ID/g

Molecule: C[C@@H](O)[C@@H]1NC(=O)[C@H](CCCCN)NC(=O)[C@@H](Cc2c[nH]c3ccccc23)NC(=O)[C@H](Cc2ccccc2)NC(=O)[C@@H](NC(=O)[C@@H](Cc2ccccc2)NC(=O)CN(CCN(CCN(CC(=O)[O-])CC(=O)O)CC(=O)[O-])CC(=O)[O-])CSSC[C@@H](C(=O)N[C@H](CO)[C@@H](C)O)NC1=O.[111In+3] [[^111In]-DTPA-octreotide]
Tumor uptake reported by Froidevaux et al. [4]: 3.03±0.26 % ID/g

Log D [5]: −2.68 | Log D of 18F-triazole [5]: −2.68 | Tumor radiotracer uptake at 60 min by imaging ([6]; 1 h): 5.36 ± 0.45 % ID/ml | Tumor radiotracer uptake after 60 min by γ-counting ([7]; iv, 1 h): 8.29 ± 1.42 % ID/g
Molecule: FET-G-PEG-TOCA [1b]

IC50 [1, 11]: 4 ± 1.4 nM | Log D [5]: −1.82 | Log D of 18F-triazole [5]: −1.83 | Kidney uptake in words [6]: highest | Liver uptake in words [6]: highest liver uptake | Tumor uptake/localization in words [6]: highest tumor uptake | Tumor radiotracer uptake at 60 min by imaging [6]: 11.0 ± 1.49 % ID/ml | Tumor radiotracer uptake after 60 min by γ-counting [7]: 17.04 ± 2.76 % ID/g
Molecule: FET-G-TOGA [3b]

Log D [5]: −1.14 | Log D of 18F-triazole [5]: −1.14 | Kidney uptake in words [6]: low | Tumor radiotracer uptake at 60 min by imaging ([6]; 1 h): 0.10 ± 0.05 % ID/ml | Tumor radiotracer uptake after 60 min by γ-counting ([7]; iv, 1 h): 0.22 ± 0.12 % ID/g | Activity/affinity on sstr-2 in words [8]: poor affinity
Molecule: FET-βAG-[W-c-(CTFTYC)K] [6b]

IC50 [1, 11]: 13.2 ± 7.8 nM | Log D [5]: −2.77 | Log D of 18F-triazole [5]: −2.77 | Liver uptake in words [6]: highest liver uptake | Tumor radiotracer uptake at 60 min by imaging ([6]; 1 h): 5.14 ± 0.40 % ID/ml | Tumor radiotracer uptake after 60 min by γ-counting ([7]; iv, 1 h): 9.78 ± 2.57 % ID/g
Molecule: FETE-PEG-TOGA [2b]

IC50 [1, 11]: 2.9 ± 1.3 nM | Log D [5]: −1.50 | Log D of 18F-triazole [5]: −1.5 | Tumor radiotracer uptake at 60 min by imaging [6]: 6.11 ± 1.46 % ID/ml | Tumor radiotracer uptake after 60 min by γ-counting [7]: 4.50 ± 1.51 % ID/g
Molecule: FETE-TOGA [4b]

Molecule: [Tyr^3]octreotate
Biological half life [9]: 1.5-2 hours
